The values below come from PubChem BioAssay AID200 (DTP/NCI, 2004).

SMILES strings stand for the structures. Values joined by “and” are separate entries in the source; they are usually repeats but may differ in a detail not shown here. Identical values can stand only once. Toxic doses and inconclusive results are not listed. Where a SMILES comes first, the peptide text is derived from it.

This experiment has as its system B6C3F1 mice, B16 melanoma ip, median survival T/C. The experiment in a line: NCI In Vivo Anticancer Drug Screen. Data for tumor model B16 Melanoma (intraperitoneal) in B6C3F1 mice. The conditions noted are these: endpoint: median survival time, schedule: Q01DX009 (ip), higher = longer survival. An outline of the steps:
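Transplantable tumor in mice; treated vs vehicle control groups; survival or tumor size measured; value = T/C ratio.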

[1] abbreviates: dose: 6.25 mg/kg/injection, vehicle: saline with Tween-80.
Setting [2] is: dose: 12.5 mg/kg/injection, vehicle: saline with Tween-80.
Where [3] appears, read: dose: 25.0 mg/kg/injection, vehicle: saline with Tween-80.
The mark [4] stands for this setting: dose: 50.0 mg/kg/injection, vehicle: saline with Tween-80.
The mark [5] stands for this setting: dose: 100.0 mg/kg/injection, vehicle: saline with Tween-80.
[6] abbreviates: dose: 200.0 mg/kg/injection, vehicle: saline with Tween-80.
Where [7] appears, read: dose: 3.12 mg/kg/injection, vehicle: saline.
[8] abbreviates: dose: 6.25 mg/kg/injection, vehicle: saline.
[9] abbreviates: dose: 50.0 mg/kg/injection, vehicle: Klucel (hydroxypropylcellulose) (HPC).
[10] abbreviates: dose: 100.0 mg/kg/injection, vehicle: Klucel (hydroxypropylcellulose) (HPC).
[11] abbreviates: dose: 200.0 mg/kg/injection, vehicle: Klucel (hydroxypropylcellulose) (HPC).
Where [12] appears, read: dose: 400.0 mg/kg/injection, vehicle: Klucel (hydroxypropylcellulose) (HPC).

With `N#CC(=C1C=CC(=NO)C=C1)c1ccc(Cl)cc1`, the T/C is 101 % of control under setting [1]; 105 % of control under setting [2]; 99 % of control under setting [3]; 99 % of control under setting [4]; 98 % of control under setting [5]; 97 % of control under setting [6].

Take `OC1(CSc2ccccc2)CCCCC1`: the T/C is 90 % of control and 105 % of control under setting [2]; 93 % of control and 102 % of control under setting [3]; 117 % of control and 95 % of control under setting [4]; 93 % of control and 102 % of control under setting [5]; 105 % of control under setting [6]; 89 % of control (dose: 400.0 mg/kg/injection, vehicle: saline with Tween-80).

`CCNC(=O)OCc1c(COC(=O)NCC)c(-c2ccc(Cl)c(Cl)c2)n2c1CCC2`: the T/C (dose: 0.78 mg/kg/injection, vehicle: saline with Tween-80) was 95 % of control; the T/C (dose: 3.12 mg/kg/injection, vehicle: saline with Tween-80) is 119 % of control; the T/C under setting [2] was 162 % of control; the T/C under setting [3] was 103 % of control.

`O=C(O)CC(NC(=O)CP(=O)(O)O)C(=O)O.[NH-]C1CCCCC1[NH-].[Pt+2]` (stereo not given): the T/C by setting is: (dose: 0.78 mg/kg/injection, vehicle: dextrose) 157 % of control; (dose: 3.12 mg/kg/injection, vehicle: dextrose) 175 % of control.

`CC[C@H](CC[C@@H](C)[C@H]1CC[C@H]2[C@@H]3CC=C4C[C@@H](OC(C)=O)CC[C@]4(C)[C@H]3CC[C@]12C)C(C)C`: for the setting “dose: 12.5 mg/kg/injection, vehicle: Klucel (hydroxypropylcellulose) (HPC)”, the T/C is 95 % of control.

As to `C(=N/NC1=NCCN1)/c1c2ccccc2c(/C=N\NC2=NCCN2)c2ccccc12`, the T/C is, setting by setting: under setting [7], 183 % of control; under setting [8], 189 % of control; (dose: 12.5 mg/kg/injection, vehicle: saline) 179 % of control.

In the case of `CC[C@]1(O)C[C@H](OC2CC(N(C)C)C(OC3CC(O)C(O)C(C)O3)C(C)O2)c2c(cc3c(c2O)C(=O)c2c(O)ccc(O)c2C3=O)[C@H]1C(=O)OC` (stereo not given in full), the T/C runs as follows: (dose: 0.12 mg/kg/injection, vehicle: Klucel (hydroxypropylcellulose) (HPC)) 106 % of control; (dose: 0.25 mg/kg/injection, vehicle: Klucel (hydroxypropylcellulose) (HPC)) 115 % of control; (dose: 1.0 mg/kg/injection, vehicle: Klucel (hydroxypropylcellulose) (HPC)) 177 % of control; (dose: 2.0 mg/kg/injection, vehicle: Klucel (hydroxypropylcellulose) (HPC)) 191 % of control.

For `C=C1C(=O)OC2/C=C(\C)CC/C=C(/C)CC(OC(=O)/C(=C/CO)CO)C12` (stereo not given), the T/C was 106 % of control (dose: 10.0 mg/kg/injection, vehicle: Klucel (hydroxypropylcellulose) (HPC)); 98 % of control (dose: 20.0 mg/kg/injection, vehicle: Klucel (hydroxypropylcellulose) (HPC)); 96 % of control (dose: 40.0 mg/kg/injection, vehicle: Klucel (hydroxypropylcellulose) (HPC)).

As to `Nc1ccc(Cl)c2ccccc12`, the T/C was 99 % of control under setting [3], 103 % of control under setting [4] and 109 % of control under setting [5].

Turning to `COC1CC(C)C(OC)C2=CC(=O)C=C(NC(=O)/C(C)=C/C=C\C(C)C(OC(N)=O)/C(C)=C\C(C)C1OC)C2=O` (stereo not given), the T/C runs as follows: (dose: 2.5 mg/kg/injection, vehicle: saline + alcohol) 176 % of control; (dose: 5.0 mg/kg/injection, vehicle: saline + alcohol) 155 % of control; (dose: 10.0 mg/kg/injection, vehicle: saline + alcohol) 174 % of control.

In the case of `CCc1cc2c(cc1C(C)=O)C(C)(C)CCC2(C)C`, the T/C is, setting by setting: under setting [1], 89 % of control; under setting [2], 95 % of control; under setting [3], 106 % of control.

For `CCCOC(=O)c1nc(N(CC2CCCCC2)C(=O)NC)sc1/N=C/c1ccccc1`, the T/C (dose: 9.0 mg/kg/injection, vehicle: saline with Tween-80) is 96 % of control; the T/C (dose: 18.0 mg/kg/injection, vehicle: saline with Tween-80) is 86 % of control; the T/C (dose: 36.0 mg/kg/injection, vehicle: saline with Tween-80) was 86 % of control.

In the case of `CCCC(NC(=O)C(C)N)C(=O)O` (stereo not given), the T/C under setting [9] was 106 % of control, the T/C under setting [10] was 112 % of control, the T/C under setting [11] was 92 % of control and the T/C under setting [12] is 98 % of control.

For `CCCCC(NC(=O)CNC(=O)CNC(=O)OCc1ccccc1)C(=O)O` (stereo not given) (HELM PEPTIDE1{[O=C(OCc1ccccc1)[*:2]].G.G.[CCCCC(N[*:1])C(=O)O]}$$$$V2.0), the T/C under setting [10] was 102 % of control, the T/C under setting [11] is 105 % of control and the T/C under setting [12] is 96 % of control.

Take `Cc1ccc(S(=O)(=O)OCOS(=O)(=O)c2ccc(C)cc2)cc1`: the T/C runs as follows: under setting [9], 120 % of control and 122 % of control; under setting [10], 117 % of control; under setting [11], 154 % of control; under setting [12], 191 % of control.

Turning to `CC(C)n1cc2c(N)ncnc2n1`, the T/C is, setting by setting: under setting [3], 93 % of control; under setting [4], 91 % of control; under setting [5], 86 % of control.

Consider `CC(C)C1OC(=O)/C=C/C=C/C=C/C=C/C=C/CC(O)C(C)C(O)CC(O)CC(O)CC(O)CC(O)CC(O)CC(O)/C=C/C1C` (stereo not given), for which the T/C was 101 % of control (dose: 1.56 mg/kg/injection, vehicle: saline); 100 % of control under setting [7]; 102 % of control under setting [8].

On to `CC(=O)NO`, for which the T/C by setting is: (dose: 50.0 mg/kg/injection, vehicle: water) 89 % of control; (dose: 100.0 mg/kg/injection, vehicle: water) 102 % of control; (dose: 200.0 mg/kg/injection, vehicle: water) 100 % of control; (dose: 400.0 mg/kg/injection, vehicle: water) 112 % of control.

Take `CC(C)(C)OC(=O)NC(CCC(=O)O)C(=O)O` (stereo not given): the T/C reads like this: (dose: 100.0 mg/kg/injection, vehicle: saline) 107 % of control; (dose: 200.0 mg/kg/injection, vehicle: saline) 107 % of control; (dose: 400.0 mg/kg/injection, vehicle: saline) 94 % of control.

Turning to `CC(C)(OC(=O)NC(CC(N)=O)C(=O)O)c1ccc(-c2ccccc2)cc1` (stereo not given), the T/C was 97 % of control under setting [10], 91 % of control under setting [11] and 89 % of control under setting [12].

On to `COC(COC(=O)N1CCN(C=O)CC1)C1=C(N2CC2)C(=O)C(C)=C(N2CC2)C1=O` (stereo not given), for which the T/C is 160 % of control and 194 % of control (dose: 1.5 mg/kg/injection, vehicle: saline); 173 % of control and 234 % of control (dose: 3.0 mg/kg/injection, vehicle: saline); 254 % of control (dose: 6.0 mg/kg/injection, vehicle: saline).

Consider `COC1C(C)OC(OC2CC(C)(O)Cc3cc4c(c(O)c32)C(=O)c2c(O)cc3c(c2C4=O)OC2OC3(C)C(O)C(N(C)C)C2O)C(OC)C1(C)OC` (stereo not given), for which the T/C was 92 % of control (dose: 0.16 mg/kg/injection, vehicle: other); 95 % of control and 102 % of control (dose: 0.31 mg/kg/injection, vehicle: other); 113 % of control (dose: 0.62 mg/kg/injection, vehicle: other); 116 % of control and 124 % of control and 97 % of control (dose: 0.63 mg/kg/injection, vehicle: other); 157 % of control and 175 % of control (dose: 5.0 mg/kg/injection, vehicle: other).

As to `CNC(=O)OCc1c(COC(=O)NC)c(C)n(-c2ccc(OC)cc2)c1C`, the T/C by setting is: (dose: 3.12 mg/kg/injection, vehicle: Klucel (hydroxypropylcellulose) (HPC)) 112 % of control; under setting [9], 111 % of control.

As to `OCCO`, the T/C is 97 % of control (dose: 0.25 % in 0.5 ml injection vol, vehicle: water) and 96 % of control (dose: 0.5 % in 0.5 ml injection vol, vehicle: water).
